Experimental data taken from patent US10556888B2, “Pyrazole compounds or salts thereof, preparation methods therefor, herbicidal compositions and use thereof” (QINGDAO KINGAGROOT CHEMICAL COMPOUNDS CO., LTD, priority 2015, dated 2020).

What was measured:
[1] = system: main crop (wheat, corn, rice, soybean, cotton, oilseed, millet and sorghum); assay: Post-emergence test experiment, main crops (Table 2); type: in vivo; design: key: Level 10: completely dead; Level 9: above 90% growth inhibition rate; Level 8: above 80% growth inhibition rate; Level 7: above 70% growth inhibition rate; Level 6: above 60% growth inhibition rate; Level 5: above 50% growth inhibition rate; Level 4: above 30% growth inhibition rate; Level 3: above 20% growth inhibition rate; Level 2: above 10% growth inhibition rate; Level 1: above 1-10% growth inhibition rate; Level 0: no effect; details: 3 weeks after spraying, greenhouse
In short: (§1)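 Compounds, dissolved in acetone, mixed with Tween 80 and diluted in water, were sprayed post-emergence onto greenhouse-grown weeds and crops at the 2-3 leaf stage (2-3 weeks post-sowing). Plants then grown 3 more weeks in the greenhouse before evaluation.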

[2] = system: Monocotyledonous and dicotyledonous weed; assay: Post-emergence test experiment, weed control effect (Table 2); type: in vivo; design: key to weed control effect, Setaria viridis (level) / weed control effect, Rorippa indica (level) / weed control effect, Abutilon theophrasti (level) / weed control effect, Echinochloa crus-galli (level) / weed control effect, Digitaria sanguinalis (level): Level 10: completely dead; Level 9: above 90% growth inhibition rate; Level 8: above 80% growth inhibition rate; Level 7: above 70% growth inhibition rate; Level 6: above 60% growth inhibition rate; Level 5: above 50% growth inhibition rate; Level 4: above 30% growth inhibition rate; Level 3: above 20% growth inhibition rate; Level 2: above 10% growth inhibition rate; Level 1: above 1-10% growth inhibition rate; Level 0: no effect; details: 3 weeks after spraying, greenhouse
In short: as §1

| SMILES | effect on crop, corn (level) ([1]; 30 g/ha) | effect on crop, rice (level) ([1]; 30 g/ha) | effect on crop, wheat (level) ([1]; 30 g/ha) | weed control effect, Abutilon theophrasti (level) ([2]; 30 g/ha) | weed control effect, Bidens pilosa (level) ([2]; 30 g/ha) | weed control effect, Digitaria sanguinalis (level) ([2]; 30 g/ha) | weed control effect, Echinochloa crus-galli (level) ([2]; 30 g/ha) | weed control effect, Rorippa indica (level) ([2]; 30 g/ha) | weed control effect, Setaria viridis (level) ([2]; 30 g/ha) | effect on crop, corn (level) ([1]; 120 g/ha) | effect on crop, rice (level) ([1]; 120 g/ha) | effect on crop, wheat (level) ([1]; 120 g/ha) | weed control effect, Abutilon theophrasti (level) ([2]; 120 g/ha) | weed control effect, Bidens pilosa (level) ([2]; 120 g/ha) | weed control effect, Digitaria sanguinalis (level) ([2]; 120 g/ha) | weed control effect, Echinochloa crus-galli (level) ([2]; 120 g/ha) | weed control effect, Rorippa indica (level) ([2]; 120 g/ha) | weed control effect, Setaria viridis (level) ([2]; 120 g/ha) |
| --- | --- | --- | --- | --- | --- | --- | --- | --- | --- | --- | --- | --- | --- | --- | --- | --- | --- | --- |
| CCOCCOCc1c(S(C)(=O)=O)ccc(C(=O)c2c(C3CC3)nn(C)c2OC(=O)c2cnn(C)c2)c1Cl [Compound 74] | 0 | 3 (Level 3: above 20% growth inhibition rate) | 0 | 7 (Level 7: above 70% growth inhibition rate) | 5 (Level 5: above 50% growth inhibition rate) | 6 (Level 6: above 60% growth inhibition rate) | 10 | 10 | 6 (Level 6: above 60% growth inhibition rate) | – | – | – | – | – | – | – | – | – |
| CCCCOCc1c(S(C)(=O)=O)ccc(C(=O)c2c(C3CC3)nn(C)c2OC(=O)c2cnn(C)c2)c1Cl [Compound 75] | 0 | 3 (Level 3: above 20% growth inhibition rate) | 0 | 5 (Level 5: above 50% growth inhibition rate) | 6 (Level 6: above 60% growth inhibition rate) | 9 (Level 9: above 90% growth inhibition rate) | 10 | 10 | 7 (Level 7: above 70% growth inhibition rate) | – | – | – | – | – | – | – | – | – |
| Cc1nn(C)cc1C(=O)Oc1c(C(=O)c2ccc(S(C)(=O)=O)c(Cn3cccn3)c2C)cnn1C [Compound 77] | 1 (Level 1: above 1-10% growth inhibition rate) | 3 (Level 3: above 20% growth inhibition rate) | 0 | 7 (Level 7: above 70% growth inhibition rate) | 7 (Level 7: above 70% growth inhibition rate) | 7 (Level 7: above 70% growth inhibition rate) | 10 | 10 | 10 | – | – | – | – | – | – | – | – | – |
| Cc1c(C(=O)c2c(C3CC3)nn(C)c2OC(=O)c2cnn(C)c2)ccc(S(C)(=O)=O)c1COCC(F)(F)F [Compound 78] | 1 (Level 1: above 1-10% growth inhibition rate) | 3 (Level 3: above 20% growth inhibition rate) | 0 | 7 (Level 7: above 70% growth inhibition rate) | 7 (Level 7: above 70% growth inhibition rate) | 7 (Level 7: above 70% growth inhibition rate) | 10 | 10 | 10 | – | – | – | – | – | – | – | – | – |
| Cc1cc(C)n(Cc2c(S(C)(=O)=O)ccc(C(=O)c3c(C)nn(C)c3OC(=O)c3cnn(C)c3)c2C)n1 [Compound 79] | – | – | – | – | – | – | – | – | – | 0 | 0 | 0 | 6 (Level 6: above 60% growth inhibition rate) | 6 (Level 6: above 60% growth inhibition rate) | 1 (Level 1: above 1-10% growth inhibition rate) | 10 | 4 (Level 4: above 30% growth inhibition rate) | 3 (Level 3: above 20% growth inhibition rate) |
| CCOCc1c(S(C)(=O)=O)ccc(C(=O)c2cnn(C)c2OC(=O)c2cnn(C)c2OCC)c1C [Compound 80] | 0 | 3 (Level 3: above 20% growth inhibition rate) | 0 | 6 (Level 6: above 60% growth inhibition rate) | 7 (Level 7: above 70% growth inhibition rate) | 7 (Level 7: above 70% growth inhibition rate) | 10 | 10 | 6 (Level 6: above 60% growth inhibition rate) | – | – | – | – | – | – | – | – | – |
| CCOc1c(C(=O)Oc2c(C(=O)c3ccc(S(C)(=O)=O)c(Cn4cc(C)cn4)c3C)c(C3CC3)nn2C)cnn1C [Compound 81] | – | – | – | – | – | – | – | – | – | 0 | 0 | 0 | 6 (Level 6: above 60% growth inhibition rate) | 6 (Level 6: above 60% growth inhibition rate) | 1 (Level 1: above 1-10% growth inhibition rate) | 10 | 4 (Level 4: above 30% growth inhibition rate) | 3 (Level 3: above 20% growth inhibition rate) |
| CCOc1c(C(=O)Oc2c(C(=O)c3ccc(S(C)(=O)=O)c(Cn4cc(Cl)cn4)c3C)c(C)nn2CC)cnn1C [Compound 82] | – | – | – | – | – | – | – | – | – | 0 | 0 | 0 | 6 (Level 6: above 60% growth inhibition rate) | 6 (Level 6: above 60% growth inhibition rate) | 1 (Level 1: above 1-10% growth inhibition rate) | 10 | 4 (Level 4: above 30% growth inhibition rate) | 3 (Level 3: above 20% growth inhibition rate) |
| CCn1nc(C2CC2)c(C(=O)c2ccc(S(C)(=O)=O)c(Cn3cc(Cl)cn3)c2C)c1OC(=O)c1cn(C)nc1C [Compound 84] | – | – | – | – | – | – | – | – | – | 0 | 0 | 0 | 6 (Level 6: above 60% growth inhibition rate) | 6 (Level 6: above 60% growth inhibition rate) | 1 (Level 1: above 1-10% growth inhibition rate) | 10 | 4 (Level 4: above 30% growth inhibition rate) | 3 (Level 3: above 20% growth inhibition rate) |
| CCn1nc(C)c(C(=O)c2ccc(S(C)(=O)=O)c(COCC(F)(F)C(F)F)c2C)c1OC(=O)c1cnn(C)c1 [Compound 85] | 0 | 3 (Level 3: above 20% growth inhibition rate) | 0 | 6 (Level 6: above 60% growth inhibition rate) | 7 (Level 7: above 70% growth inhibition rate) | 8 (Level 8: above 80% growth inhibition rate) | 9 (Level 9: above 90% growth inhibition rate) | 10 | 8 (Level 8: above 80% growth inhibition rate) | – | – | – | – | – | – | – | – | – |
